Earlier results on three compounds are cited in patent US20210386367A1, “DEVICES AND SYSTEMS FOR GASTROINTESTINAL MICROBIOME DETECTION AND MANIPULATION” (Progenity, Inc., priority 2018, published 2021).

In brackets after ≈: the same amount, converted by molar mass. A value given as a limit tells only on which side of the number the result lay.

What all share (details): cited from earlier work
One series concerns Streptococcus agalactiae.
Series [1] deals with Bacteroides thetaiotaomicron.
The subject of another series is Staphylococci.

Turning to `CO/N=C(\C(=O)N[C@@H]1C(=O)N2C(C(=O)O)=C(CSc3nc(=O)c(=O)[nH]n3C)CS[C@H]12)c1csc(N)n1` [ceftriaxone], in the series with Streptococcus agalactiae, the MIC50 was 0.025 µg/mL (≈ 0.0451 µM), the MIC90 is 0.1 µg/mL (≈ 0.18 µM) and the “MIC range” value was 0.012 to 0.1 µg/mL.
For `C[C@@H](O)[C@H]1C(=O)N2C(C(=O)O)=C(S[C@@H]3CN[C@H](C(=O)N(C)C)C3)[C@H](C)[C@H]12` [meropenem], in series [1], the “% S” value is on record as 100%, the MIC50 was 0.25 µg/mL (≈ 0.652 µM) and the MIC90 is 0.5 µg/mL (≈ 1.3 µM).
Turning to `CO[C@H]1/C=C/O[C@@]2(C)Oc3c(C)c(O)c4c(O)c(c5c(nc6cc(C)ccn65)c4c3C2=O)NC(=O)/C(C)=C\C=C\[C@H](C)[C@H](O)[C@@H](C)[C@@H](O)[C@@H](C)[C@H](OC(C)=O)[C@@H]1C` [rifaximin], in the series with Staphylococci, the MIC50 was not above 0.06 µg/mL, the MIC90 is 64 µg/mL (≈ 81.4 µM) and the “MIC range” value was not above 0.06 to 64 µg/mL.
